Source: PubChem BioAssay AID248 (DTP/NCI, 2004)
Inconclusive results and toxic doses are left out. No stated cut-off is given here; in the data, active means T/C of 150% or more; inactive means T/C below 125%.

Tested on: L1210 leukemia ip in BDF1 mice, survival T/C
Test: NCI In Vivo Anticancer Drug Screen. Data for tumor model L1210 Leukemia (intraperitoneal) in B6D2F1 (BDF1) mice
Details: endpoint: mean survival time, higher = longer survival
Outline: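 In this screen, tumor-bearing mice given compound are compared to those given vehicle, and their survival values are reported as a treated-to-control quotient.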

[1] = dose: 50.0 mg/kg/injection, schedule: Q01DX001 (ip), vehicle: saline
[2] = dose: 100.0 mg/kg/injection, schedule: Q01DX001 (ip), vehicle: saline
[3] = dose: 200.0 mg/kg/injection, schedule: Q01DX001 (ip), vehicle: saline
[4] = dose: 100.0 mg/kg/injection, schedule: Q04DX003 (ip), vehicle: saline
[5] = dose: 200.0 mg/kg/injection, schedule: Q04DX003 (ip), vehicle: saline
[6] = dose: 400.0 mg/kg/injection, schedule: Q04DX003 (ip), vehicle: saline
[7] = dose: 100.0 mg/kg/injection, schedule: Q04DX002 (ip), vehicle: Klucel (hydroxypropylcellulose) (HPC)
[8] = dose: 200.0 mg/kg/injection, schedule: Q04DX002 (ip), vehicle: Klucel (hydroxypropylcellulose) (HPC)
[9] = dose: 400.0 mg/kg/injection, schedule: Q04DX002 (ip), vehicle: Klucel (hydroxypropylcellulose) (HPC)
[10] = dose: 100.0 mg/kg/injection, schedule: Q01DX009 (ip), vehicle: saline
[11] = dose: 200.0 mg/kg/injection, schedule: Q01DX009 (ip), vehicle: saline
[12] = dose: 400.0 mg/kg/injection, schedule: Q01DX009 (ip), vehicle: saline
[13] = dose: 100.0 mg/kg/injection, schedule: Q04DX003 (ip), vehicle: saline with Tween-80
[14] = dose: 200.0 mg/kg/injection, schedule: Q04DX003 (ip), vehicle: saline with Tween-80
[15] = dose: 100.0 mg/kg/injection, schedule: Q04DX002 (ip), vehicle: saline with Tween-80
[16] = dose: 200.0 mg/kg/injection, schedule: Q04DX002 (ip), vehicle: saline with Tween-80
[17] = dose: 50.0 mg/kg/injection, schedule: Q01DX009 (ip), vehicle: saline

Measured: T/C

CC1=C(c2ccccc2)C2(c3ccccc3)C3(C)C(=O)C(C)(C(c4ccccc4)C3c3ccccc3)C2(C)C1=O (configuration not stated)
inactive: dose: 100.0 mg/kg/injection, schedule: Q04DX002 (ip), vehicle: gum acacia 97 % of control | dose: 200.0 mg/kg/injection, schedule: Q04DX002 (ip), vehicle: gum acacia 91 % of control | dose: 400.0 mg/kg/injection, schedule: Q04DX002 (ip), vehicle: gum acacia 94 % of control

CCCCNC(=O)NNC(=O)CCCC(=O)NNC(=O)NCCCC
inactive: [1] 100 % of control | [2] 93 % of control | [3] 100 % of control

CS(=O)(=O)Oc1c(Br)cc(Br)c2cccnc12
inactive: dose: 100.0 mg/kg/injection, schedule: Q01DX001 (ip), vehicle: carboxymethylcellulose (CMC) 104 % of control | dose: 200.0 mg/kg/injection, schedule: Q01DX001 (ip), vehicle: carboxymethylcellulose (CMC) 98 % of control | dose: 400.0 mg/kg/injection, schedule: Q01DX001 (ip), vehicle: carboxymethylcellulose (CMC) 98 % of control

Cc1ccc(S(=O)(=O)N(CCCc2c(C)ncnc2Cl)c2ccccc2)cc1
inactive: [1] 101 % of control | [2] 92 % of control | [3] 98 % of control | dose: 400.0 mg/kg/injection, schedule: Q01DX001 (ip), vehicle: saline 95 % of control

N#CCCCN1CCOCC1
inactive: [4] 96 % of control | [5] 96 % of control | [6] 104 % of control

CCC[CH2][Pb]([CH2]CCC)([CH2]CCC)[O]C(C)=O
inactive: [2] 101 % of control | [3] 95 % of control

Cc1cccc(N2P(N(C)C)N(c3cccc(C)c3)P2(=O)N(C)C)c1 (configuration not stated)
inactive: [7] 97 % of control | [8] 111 % of control | [9] 94 % of control

CC(C)(C)C1CCC(C(N)=O)CC1 (configuration not stated)
inactive: [7] 103 % of control | [8] 107 % of control | [9] 103 % of control

O=C(Nc1cccc(F)c1)N(CCO)C1CCCCC1
inactive: [10] 105 % of control | [11] 113 % of control | [12] 100 % of control

CCCCCCCCCCC(CCCCCC)C(=O)O (configuration not stated)
inactive: dose: 100.0 mg/kg/injection, schedule: Q01DX001 (ip), vehicle: saline with Tween-80 95 % of control | dose: 200.0 mg/kg/injection, schedule: Q01DX001 (ip), vehicle: saline with Tween-80 96 % of control | dose: 400.0 mg/kg/injection, schedule: Q01DX001 (ip), vehicle: saline with Tween-80 90 % of control

COC(=O)/C=C(\C)Sc1ccc(Cl)cc1
inactive: dose: 100.0 mg/kg/injection, schedule: Q04DX002 (ip), vehicle: other 91 % of control | dose: 200.0 mg/kg/injection, schedule: Q04DX002 (ip), vehicle: other 98 % of control | dose: 400.0 mg/kg/injection, schedule: Q04DX002 (ip), vehicle: other 102 % of control

CC(C)[O][In]([O]C(C)C)[O]C(C)C
inactive: dose: 50.0 mg/kg/injection, schedule: Q04DX003 (ip), vehicle: saline with Tween-80 96 % of control | [13] 99 % of control | [14] 91 % of control | dose: 400.0 mg/kg/injection, schedule: Q04DX003 (ip), vehicle: saline with Tween-80 96 % of control

COc1ccc2c(c1)CN(C)CC2
inactive: dose: 75.0 mg/kg/injection, schedule: Q01DX001 (ip), vehicle: other 108 % of control

CN(N=Nc1ccccc1C(=O)NN)C1CCCCC1
inactive: dose: 100.0 mg/kg/injection, schedule: Q01DX009 (ip), vehicle: other 117 % of control | dose: 200.0 mg/kg/injection, schedule: Q01DX009 (ip), vehicle: other 114 % of control

CC(=O)Nc1cc(C)cc(NC(C)=O)c1C
inactive: dose: 75.0 mg/kg/injection, schedule: Q01DX001 (ip), vehicle: carboxymethylcellulose (CMC) 94 % of control | dose: 300.0 mg/kg/injection, schedule: Q01DX001 (ip), vehicle: carboxymethylcellulose (CMC) 90 % of control

Cc1c([N+](=O)[O-])cc(C(C)(C)C)c(OC(=O)c2ccccc2)c1[N+](=O)[O-]
inactive: [15] 123 % of control | [16] 116 % of control

COC(=O)NC1CC(CO)CC1O (configuration not stated)
inactive: dose: 50.0 mg/kg/injection, schedule: Q01DX009 (ip), vehicle: Klucel (hydroxypropylcellulose) (HPC) 91 % of control | dose: 100.0 mg/kg/injection, schedule: Q01DX009 (ip), vehicle: Klucel (hydroxypropylcellulose) (HPC) 89 % of control | dose: 200.0 mg/kg/injection, schedule: Q01DX009 (ip), vehicle: Klucel (hydroxypropylcellulose) (HPC) 91 % of control

OC(C1CCCCC1)(C1CCCCC1)C1CCCCC1
inactive: dose: 100.0 mg/kg/injection, schedule: Q01DX009 (ip), vehicle: saline with Tween-80 101 % of control | dose: 100.0 mg/kg/injection, schedule: Q04DX003 (ip), vehicle: Klucel (hydroxypropylcellulose) (HPC) 91 % of control | dose: 200.0 mg/kg/injection, schedule: Q01DX009 (ip), vehicle: saline with Tween-80 96 % of control | dose: 200.0 mg/kg/injection, schedule: Q04DX003 (ip), vehicle: Klucel (hydroxypropylcellulose) (HPC) 92 % of control | dose: 400.0 mg/kg/injection, schedule: Q01DX009 (ip), vehicle: saline with Tween-80 96 % of control | dose: 400.0 mg/kg/injection, schedule: Q04DX003 (ip), vehicle: Klucel (hydroxypropylcellulose) (HPC) 96 % of control

CS(=O)(=O)c1ccccc1
inactive: [7] 102 % of control | [8] 91 % of control | [9] 102 % of control

Cc1ccc(S(=O)(=O)N2CC(O)C(O)C2Cn2cnc3c(N)ncnc32)cc1 (configuration not stated)
inactive: dose: 50.0 mg/kg/injection, schedule: Q04DX002 (ip), vehicle: saline 96 % of control | dose: 100.0 mg/kg/injection, schedule: Q04DX002 (ip), vehicle: saline 102 % of control | dose: 200.0 mg/kg/injection, schedule: Q04DX002 (ip), vehicle: saline 102 % of control

COC(=O)C(C)CSP(=S)(Oc1ccccc1)Oc1ccccc1 (configuration not stated)
inactive: [15] 105 % of control | [16] 105 % of control | dose: 400.0 mg/kg/injection, schedule: Q04DX002 (ip), vehicle: saline with Tween-80 102 % of control

O=C(O)CNCc1cc(=O)[nH]c(=O)[nH]1
inactive: [4] 94 % of control | [5] 97 % of control | [6] 105 % of control

Nc1nc(N)nc(N)n1 (tested in a mixture with another compound)
inactive: [13] 89 % of control | [14] 89 % of control

C=CCNC(=O)C1C2C=CC(C2)C1C(=O)NCC=C (configuration not stated)
inactive: [13] 103 % of control | [14] 103 % of control

CCOCCS(=O)(=O)CCS(=O)(=O)CCOCC
inactive: [10] 95 % of control | [11] 103 % of control | [12] 108 % of control

Cc1noc(N)c1[N+](=O)[O-]
inactive: dose: 12.5 mg/kg/injection, schedule: Q01DX009 (ip), vehicle: saline 97 % of control | dose: 25.0 mg/kg/injection, schedule: Q01DX009 (ip), vehicle: saline 109 % of control | [17] 97 % of control | [10] 86 % of control | dose: 100.0 mg/kg/injection, schedule: Q04DX003 (ip), vehicle: other 92 % of control | dose: 200.0 mg/kg/injection, schedule: Q04DX003 (ip), vehicle: other 96 % of control | dose: 400.0 mg/kg/injection, schedule: Q04DX003 (ip), vehicle: other 92 % of control

COc1cc(CC(C)N)cc(OC)c1OC (configuration not stated)
inactive: [17] 110 % of control | [10] 108 % of control | [11] 103 % of control

O=[N+]([O-])c1ccc(Cl)c(I)c1
inactive: dose: 12.5 mg/kg/injection, schedule: Q01DX009 (ip), vehicle: saline with Tween-80 94 % of control | dose: 25.0 mg/kg/injection, schedule: Q01DX009 (ip), vehicle: saline with Tween-80 94 % of control | dose: 50.0 mg/kg/injection, schedule: Q01DX009 (ip), vehicle: saline + alcohol 92 % of control | dose: 50.0 mg/kg/injection, schedule: Q01DX009 (ip), vehicle: saline with Tween-80 94 % of control | dose: 200.0 mg/kg/injection, schedule: Q01DX009 (ip), vehicle: saline + alcohol 92 % of control

Cc1ccc(S(=O)(=O)N=N/C=C2/C=CC=CN2O)cc1
inactive: dose: 40.0 mg/kg/injection, schedule: Q01DX009 (ip), vehicle: saline 93 % of control | dose: 60.0 mg/kg/injection, schedule: Q01DX009 (ip), vehicle: saline 96 % of control | dose: 90.0 mg/kg/injection, schedule: Q01DX009 (ip), vehicle: saline 94 % of control | dose: 135.0 mg/kg/injection, schedule: Q01DX009 (ip), vehicle: saline 104 % of control | dose: 175.0 mg/kg/injection, schedule: Q01DX009 (ip), vehicle: saline with Tween-80 111 % of control
